Experimental data reported in patent US8734673B2, “Boron selective ionic liquids and polymeric ionic liquids, methods of making and methods of use thereof” (The University of Toledo, priority 2008, dated 2014).
Like-named read-outs stand apart in the source and are kept apart here.

How the values were obtained:
[1] = Miscibility/solubility in heptane and water
Description: The miscibility/solubility of all ionic liquids in both heptane and water are indicated as well.
The solubility behavior of all thirty-nine geminal dicationic ionic liquids in water and heptane also was explored.

[2] = Solvation interaction parameters by inverse gas-liquid chromatography (Abraham model); assay type: physicochemical
Description: The preparation of the capillary columns for inverse gas-liquid chromatographic analysis was performed using a previously described procedure. All capillary columns had efficiencies between 2100 to 2500 plates/meter. Characterization of the capillary columns and probe molecule descriptions are listed in supplemental information. Multiple linear regression analysis (MLRA) and statistical calculations were performed using the program Analyse-it (Microsoft, USA).
Solvation Characteristics. We have previously reported that the Abraham solvation model, a linear free energy approach that utilizes inverse gas-liquid chromatography to describe the solvation properties of a liquid, can be used to characterize room temperature ionic liquids. Described by equation 1, the model provides the so-called “interaction parameters” (r, s, a, b, l) by using multiple linear regression analysis to fit the retention factor (k, determined chromatographically) to the solute descriptors (R2, π2^Hα2H, β2^H, log L^16) for a wide variety of probe solute molecules. […]
Previously we characterized a large number of room temperature ionic liquids in terms of multiple solvation interactions using the solvation parameter model, shown in equation log k=c+rR2+sπ2^H+aα2^H+bβ2^H+l log L^16 [3] This approach utilizes inverse gas-liquid chromatography and allows the use of a large number of probe molecules to deconvolute solute retention in terms of the type and magnitude of individual solvation interactions. The solute descriptors (R2, π2^H, α2^H, .β2^H, log L^16) from Equation 3 are obtained from the literature for many probe molecules containing a variety of functional groups. The retention factor is determined chromatographically. The solute descriptors and retention factors are subjected to multiple linear regression analysis to obtain the interaction parameter coefficients (r, s, a, b, l), which ultimately characterize the stationary phase: r is the ability of the diionic liquid containing-stationary phase to interact with .π0 and n electrons of the solute, s is a measure of the dipolarity/polarizability of the diionic liquid containing-stationary phase, a defines the diionic liquid containing-stationary phase hydrogen bond basicity, b is a measure of the hydrogen bond acidity, and l refers to the ability of the diionic liquid containing-stationary phase to separate adjacent members of a homologous series.
Test solutes used to determine interaction parameters and solvation thermodynamics were dissolved in dichloromethane. […] Split injection and flame ionization detection were utilized with injection and detection temperatures of 250° C. Helium was used as the carrier gas with a column inlet pressure of 3.1 psi and flow rate of 1.0 mL/min. Methane was used to determine the dead volume of the column. Multiple linear regression analysis and statistical calculations were performed using the program Analyze-it (Microsoft).

[3] = values taken from reference 31, cited from earlier work

Row | Molecule | Miscibility with Heptane [1] | Miscibility with Water [1] | Interaction parameter a (hydrogen bond basicity) ([2]; 40° C.) | Interaction parameter b (hydrogen bond acidity) ([2]; 40° C.) | Interaction parameter c ([2]; 40° C.) | Interaction parameter l (dispersion forces) ([2]; 40° C.) | Interaction parameter r (interaction via nonbonding and π-electrons) ([2]; 40° C.) | Interaction parameter s (dipolarity/polarizability) ([2]; 40° C.) | Interaction parameter a (hydrogen bond basicity) ([2]; 70° C.) | Interaction parameter b (hydrogen bond acidity) ([2]; 70° C.) | Interaction parameter c ([2]; 70° C.) | Interaction parameter l (dispersion forces) ([2]; 70° C.) | Interaction parameter r (interaction via nonbonding and π-electrons) ([2]; 70° C.) | Interaction parameter s (dipolarity/polarizability) ([2]; 70° C.) | Interaction parameter a (hydrogen bond basicity) ([2]; 100° C.) | Interaction parameter b (hydrogen bond acidity) ([2]; 100° C.) | Interaction parameter c ([2]; 100° C.) | Interaction parameter l (dispersion forces) ([2]; 100° C.) | Interaction parameter r (interaction via nonbonding and π-electrons) ([2]; 100° C.) | Interaction parameter s (dipolarity/polarizability) ([2]; 100° C.) | other results
1 | 1,3-di(2,3-dimethylimidaolium)propane di-bromide [C3(m2im)2-Br] | Immiscible | Miscible | – | – | – | – | – | – | – | – | – | – | – | – | – | – | – | – | – | – | –
2 | 1,3-di(2,3-dimethylimidazolium)propane di-hexafluorophosphate [C3(m2im)2-PF6] | Immiscible | Immiscible | – | – | – | – | – | – | – | – | – | – | – | – | – | – | – | – | – | – | –
3 | CCCCn1cc[n+](C)c1.O=S(=O)([N-]S(=O)(=O)C(F)(F)F)C(F)(F)F [BMIM-NTf2, 1-butyl-3-methylimidazolium bis[(trifluoromethylsulfonyl)imide], reference compound] | – | – | 2.02 | 0.36 | −2.87 | 0.63 | 0 | 1.89 | 1.75 | 0.38 | −3.03 | 0.56 | 0 | 1.67 | 1.55 | 0.24 | −3.13 | 0.49 | 0 | 1.60 | –
4 | CCCC[N+]1(C)CCCC1.O=S(=O)([N-]S(=O)(=O)C(F)(F)F)C(F)(F)F [BMPY-NTf2, 1-butyl-1-methylpyrrolidinium bis[(trifluoromethylsulfonyl)imide]] | – | – | – | – | – | – | – | – | – | – | – | – | – | – | – | – | – | – | – | – | Interaction parameter a (hydrogen bond basicity) ([3]; 40° C.): 2.08; Interaction parameter b (hydrogen bond acidity) ([3]; 40° C.): 0.16; Interaction parameter c ([3]; 40° C.): −2.78; Interaction parameter l (dispersion forces) ([3]; 40° C.): 0.68; Interaction parameter r (interaction via nonbonding and π-electrons) ([3]; 40° C.): 0; Interaction parameter s (dipolarity/polarizability) ([3]; 40° C.): 1.69; Interaction parameter a (hydrogen bond basicity) ([3]; 70° C.): 1.78; Interaction parameter b (hydrogen bond acidity) ([3]; 70° C.): 0; Interaction parameter c ([3]; 70° C.): −2.80; Interaction parameter l (dispersion forces) ([3]; 70° C.): 0.56; Interaction parameter r (interaction via nonbonding and π-electrons) ([3]; 70° C.): 0; Interaction parameter s (dipolarity/polarizability) ([3]; 70° C.): 1.53; Interaction parameter a (hydrogen bond basicity) ([3]; 100° C.): 1.55; Interaction parameter b (hydrogen bond acidity) ([3]; 100° C.): 0; Interaction parameter c ([3]; 100° C.): −2.92; Interaction parameter l (dispersion forces) ([3]; 100° C.): 0.48; Interaction parameter r (interaction via nonbonding and π-electrons) ([3]; 100° C.): 0; Interaction parameter s (dipolarity/polarizability) ([3]; 100° C.): 1.44
5 | Cn1cc[n+](CCC[n+]2ccn(C)c2)c1.F[B-](F)(F)F.F[B-](F)(F)F [C3(mim)2-BF4, 1,3-di(3-methylimidazolium)propane di-tetrafluoroborate] | Immiscible | Miscible | – | – | – | – | – | – | – | – | – | – | – | – | – | – | – | – | – | – | –
6 | Cn1cc[n+](CCC[n+]2ccn(C)c2)c1.[Br-].[Br-] [C3(mim)2-Br, 1,3-di(3-methylimidazolium)propane di-bromide] | Immiscible | Miscible | – | – | – | – | – | – | – | – | – | – | – | – | – | – | – | – | – | – | –
7 | Cn1cc[n+](CCC[n+]2ccn(C)c2)c1.F[P-](F)(F)(F)(F)F.F[P-](F)(F)(F)(F)F [C3(mim)2-PF6, 1,3-di(3-methylimidazolium)propane di-hexafluorophosphate] | Immiscible | Immiscible | – | – | – | – | – | – | – | – | – | – | – | – | – | – | – | – | – | – | –
8 | C[N+]1(CCC[N+]2(C)CCCC2)CCCC1.F[P-](F)(F)(F)(F)F.F[P-](F)(F)(F)(F)F [C3(mpy)2-PF6, 1,3-di(methylpyrrolidinium)propane di-hexafluorophosphate] | Immiscible | Immiscible | – | – | – | – | – | – | – | – | – | – | – | – | – | – | – | – | – | – | –
9 | C[n+]1ccn(CCCCn2cc[n+](C)c2)c1.O=S(=O)([N-]S(=O)(=O)C(F)(F)F)C(F)(F)F.O=S(=O)([N-]S(=O)(=O)C(F)(F)F)C(F)(F)F [C4(mim)2-NTf2] | – | – | 2.11 | 0.50 | −2.94 | 0.56 | 0.25 | 2.01 | 1.77 | 0.45 | −2.91 | 0.44 | 0.22 | 1.78 | 1.57 | 0.33 | −3.06 | 0.37 | 0.20 | 1.69 | –
10 | Cn1cc[n+](CCCCCCCCC[n+]2ccn(C)c2)c1.O=S(=O)([N-]S(=O)(=O)C(F)(F)F)C(F)(F)F.O=S(=O)([N-]S(=O)(=O)C(F)(F)F)C(F)(F)F [C9(mim)2-NTf2, 1,9-di(3-methylimidazolium)nonane di-bis[(trifluoromethyl)sulfonyl]imidate] | – | – | 1.83 | 0.47 | −2.86 | 0.62 | 0.16 | 1.81 | 1.75 | 0.20 | −2.95 | 0.51 | 0.11 | 1.76 | 1.50 | 0.15 | −3.06 | 0.43 | 0.11 | 1.64 | –
11 | O=S(=O)([N-]S(=O)(=O)C(F)(F)F)C(F)(F)F.O=S(=O)([N-]S(=O)(=O)C(F)(F)F)C(F)(F)F.c1ccc(Cn2cc[n+](CCCCCCCCCCCC[n+]3ccn(Cc4ccccc4)c3)c2)cc1 [C12(benzim)2-NTf2, 1,12-di(3-benzylimidazolium)dodecane di-bis[(trifluoromethyl)sulfonyl]imidate] | – | – | 1.96 | 0.84 | −2.94 | 0.66 | 0.11 | 1.65 | 1.75 | 0.57 | −3.07 | 0.56 | 0.07 | 1.62 | 1.44 | 0.52 | −3.12 | 0.46 | 0 | 1.47 | –
